Test system: mice initiated with morphine
Experiment: Anti-opioid addiction effectiveness test of grouped herbal compounds in mice
Assay type: in vivo
Procedure: Mice will be initiated with morphine at 1 mg/ml for 21 days.
The second test: use separate groups of compounds to test effectiveness in mice. The definition of effective.
1. Ten Mice in Each Group.

SMILES: CN1CC[C@]23c4c5ccc(O)c4O[C@H]2[C@@H](O)C=C[C@H]3[C@H]1C5 [Morphine]
- Effective (3rd test, regrouped compounds of groups 2 and 9): Yes
- Effective (second test, ten mice in each group, mice initiated with morphine at 1 mg/ml for 21 days): Yes

From patent US20190314431A1, “Method of Discovery of Potential Bioactive Compounds in Herbals by Regrouping after Chromatography” (priority 2018, published 2019)
